In patent US20230105577A1, “A TOPICAL COMPOSITION” (Conopco, Inc., d/b/a UNILEVER, priority 2020, published 2023):
Where a name gives a salt, the structure may show the parent alone.

Tests used:
[1] = test system: M. furfur (CBS1878); conditions: for The range of concentration of the atractylenolide compound (ppm) where the ΣFIC was less than 0.9 / The range of ratio of atractylenolide compound/octopirox (w/w) where ΣFIC was less than 0.9: in combination with octopirox, 32° C.
Description: Method 1: ΣFIC Assay Against M. furfur.
M. furfur (CBS1878) was maintained on MD agar plate (Solution A) was cultured into 20 ml of growth medium Pityrosporum Broth (PB, Solution B). They are then incubated at 32° C. for 48 hours with shaking. Then, 1 ml of the first broth culture is transferred into 9 ml of fresh PB and incubated at 32° C. for 48 hours with shaking. The final culture should contain 2 to 6×10^6 cells/ml. This is achieved by diluting using PB to 5×10^5 cells/ml.
Octopirox® was serially diluted (2-fold) to prepare in a range of 60-1000 ppm in the growth medium. Testing atractylenolide compound (stock: 4 mg/ml) was 2-fold serially diluted in DMSO to prepare in a range of 40000-10 ppm. Binary combinations of octopirox and the testing compound were prepared in 96-well plate by mixing 10 μl of octopirox solution with 10 μl of testing compound. The solution in each well were further mixed with 180 μl of M. furfur strain suspensions in PB.
The final cell density in the testing plate is around 5*10^4 cell/ml. The final concentration of each ingredient in ppm (parts per million) after (20-fold dilution) was as follows. Each of these concentrations was tried out to determine the FIC value for (either of) Octopirox® in combination with one of the atractylenolide compound.
Multi-channel pipette was used to mix the compound and strain suspension. Thereafter the 96-well plates were incubated in an incubator. In accordance with the test protocols that were followed, M. furfur was incubated aerobically at 32° C. for 1 day. Thereafter 20 μl alamar blue (0.1%) was dispensed in each well and the procedure of incubation (as abovementioned) was repeated. Finally, the change in colour of the indicator was monitored to check for visible signs of microbial growth or inhibition of the growth. If the colour changed to red it indicated growth (of microbes) and blue indicated no growth or inhibition of growth.
The MIC is defined as the absolute lowest concentration of active that provides complete microbial growth inhibition as indicated by the blue color of alamar blue under the tested condition.
The procedure is as follows:
The parameter can be defined as follows:
After all the observations were recorded and tabulated, the Fractional Inhibition Concentration (FIC) was calculated.
This parameter is defined as follows:
ΣFIC=FIC(component1)+FIC(component2)
In this study, we have adopted a liberal approach defining any binary mixture with ΣFIC<0.9 as showing evidence of synergistic behavior.
The experiments were carried out over a concentration range of ingredients as below:

[2] = test system: M. furfur (CBS 1878); assay: Zone of inhibition (ZOI) assay; format: cell-based, Malassezia furfur; conditions: 0.1% OCT, 10 μL on 6 mm filter paper, 32° C., 2 days
Description: Method 2: Zone Off Inhibition (ZOI) Assay
Atractylodes macrocephala (AM) root water extract (purchased from Huzhou Liaoyuan, China) was prepared at concentration of 0.75%, and 1.5% in 50% water/DMSO. Octopirox (OCT) was prepared at concentration of 0.1% and 0.2% in DMSO. Prepare Malassezia growth agar plates, and then spread 200 μL M. furfur (10^6 CFU) (CBS 1878) on to the agar. Several sterile filter papers (diameter=6 mm) were placed on the agar plate. 10 μL of compound solutions were added on the filter paper. The plates were Incubate at 32° C. for 2 days. Clear growth inhibition zone was recorded.
Synergistic antimicrobial activity:Inhibition distance for compound1+compound2combination>Inhibition distance for compound1 alone+Inhibition distance for compound2 alone

Compound	The range of concentration of the atractylenolide compound (ppm) where the ΣFIC was less than 0.9 [1]	The range of ratio of atractylenolide compound/octopirox (w/w) where ΣFIC was less than 0.9 [1]	Inhibition distance (mm) = (Inhibition zone diameter − filter paper diameter)/2 ([2]; 0.75% AM)	Inhibition distance (mm) = (Inhibition zone diameter − filter paper diameter)/2 ([2]; 1.5% AM)	Synergistic antimicrobial activity in combination with Octopirox® (ΣFIC assay) ([1]; binary combination with Octopirox® 0-50 ppm)
C=C1CCC[C@]2(C)C=C3OC(=O)C(C)=C3C[C@@H]12 [Atractylenolide I, atractylenolide I]	31.25-500 ppm	5-1280 w/w			
C=C1CCC[C@]2(C)C[C@@H]3OC(=O)C(C)=C3C[C@@H]12 [Atractylenolide II, atractylenolide II]	31.25-1000 ppm	5-2560 w/w			
Cc1cc(CC(C)CC(C)(C)C)n(O)c(=O)c1 (stereo not shown) [OCT, 1-hydroxy-4-methyl-6-(2,4,4-trimethylpentyl)-2(1H) pyridinone monoethanolamine salt]			2.7 mm	2.7 mm	
zinc pyrithione [ZPTO, reference compound]					cannot interact synergistically
